Reference: patent US20240239799A1, “(S)-1-(5-((PYRIDIN-3-YL)THIO)PYRAZIN-2-YL)-4'H,6'H-SPIRO[PIPERIDINE-4,5'-PYRROLO [1,2-B]PYRAZOL]-4'-AMINE DERIVATIVES AND SIMILAR COMPOUNDS AS SHP2 INHIBITORS FOR THE TREATMENT OF E.G. CANCER” (C.N.C.C.S. S.C.A.R.L. COLLEZIONE NAZIONALE DEI COMPOSTI …, priority 2021, published 2024)
pIC50: −log10 of the molar value. Read-outs that look alike come from different tables or passages of the source.

Experiments:
[1] = target: T1, SHP-2 enzyme (Met1-Leu525) (Homo sapiens, UniProt Q06124); experiment: SHP2 inhibition enzymatic assay (DiFMUP substrate, IRS1 peptide activation); format: biochemical; details: 0.5 nM SHP-2, 500 nM IRS1 peptide, 75 μM DiFMUP; read-out: SHP2wt - IC50
T1 construct: synthetized by Origene, Met1-Leu525, cat #TP750155; purchased Origene TP750155
T1 sequence (Q06124 1-525): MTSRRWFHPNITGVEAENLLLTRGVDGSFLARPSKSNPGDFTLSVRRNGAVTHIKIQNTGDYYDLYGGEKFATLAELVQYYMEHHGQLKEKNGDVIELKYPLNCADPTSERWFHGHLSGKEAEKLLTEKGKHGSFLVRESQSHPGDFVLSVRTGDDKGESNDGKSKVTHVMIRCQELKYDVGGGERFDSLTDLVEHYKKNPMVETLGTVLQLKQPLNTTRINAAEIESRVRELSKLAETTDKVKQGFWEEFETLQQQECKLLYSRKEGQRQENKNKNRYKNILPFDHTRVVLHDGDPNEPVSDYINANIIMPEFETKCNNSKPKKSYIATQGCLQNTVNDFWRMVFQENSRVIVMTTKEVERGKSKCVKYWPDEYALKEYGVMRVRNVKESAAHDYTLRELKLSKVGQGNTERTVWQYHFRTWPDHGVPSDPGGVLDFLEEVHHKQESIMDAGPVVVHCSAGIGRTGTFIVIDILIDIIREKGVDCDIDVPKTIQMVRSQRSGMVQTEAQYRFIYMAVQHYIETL
Protocol: Assay volume of 20 μL/well was assembled in 384 well black polystyrene low-binding microplates (Greiner), using the following buffer: 60 mM HEPES pH 7.2, 75 mM NaCl, 75 mM KCl, 1 mM EDTA pH 8, 0.05% tween-20, 5 mM DTT. The SHP-2 enzyme (synthetized by Origene, Met1-Leu525, cat #TP750155) was used at a final concentration of 0.5 nM.
Briefly, DMSO serially diluted testing compounds were transferred to the bottom of the assay plate. SHP2 was then added together with the IRS1 peptide 30 min post incubation, the DiFMUP substrate was added to the reaction and incubated 30 min at rt. […] The fluorescence was detected by a microplate reader (Envision, PerkinElmer) according to the DiFMUP excitation and emission wavelength. The lower the fluorescence the higher the SHP2 inhibition.
The percentage inhibition is fitted against the compound dilutions with a four-parameter logistic regression. The inflection point (i.e. the concentration at which half-maximal inhibition is achieved) is the IC50.

[2] = tested on: phospho-ERK1/2 (Thr202/Tyr204) in KYSE-520 cells; experiment: Phospho-ERK cellular assay (TR-FRET); format: cell-based; details: Homo sapiens, KYSE-520 cells, 2 h at 37° C., read-out: pERK IC50
Protocol: ERK phosphorylation was detected using the “Advanced phospho-ERK1/2 (Thr202/Tyr204)” TR-FRET kit (Cisbio, Cat #64AERPEG/H), following the manufacturer reagents and instructions.
Briefly, 20.000/well KYSE-520 cells (DSMZ ACC 371) were plated in 6 μL RPMI-1640 (Invitrogen) growth medium, into 384 white low-volume high base TC microplates (Greiner). After an overnight incubation, cells were treated with DMSO serial diluted compounds and incubated for 2 h at 37° C. After incubation, 2 μL/well of 4X Lysis Buffer (Cisbio 64KL1FDF), were added and incubated with cells for 30 min on gentle shaking. Finally, lysates were added with 2 μL/well of Eu cryptate (donor) and D2 (acceptor) conjugated antibodies (as provided by the Cisbio kit #64AERPEG/H) diluted 1:100 in Detection Buffer (as provided by the Cisbio kit #64AERPEG/H). Plates were then sealed and incubated at rt in the dark. After an overnight incubation, the TR-FRET signal was detected on a suitable reader (Envision, PerkinElmer). The lower the TR-FRET signal the higher the higher the SHP2 inhibition in cells.
The activity of each compound dilution was calculated as percentage between vehicle DMSO treated cells and no cells, 0% inhibition and 100% inhibition respectively. The percentage activity is fitted against the compound dilutions with a four-parameter logistic regression. The inflection point (i.e. the concentration at which half-maximal inhibition is achieved) is the IC50.

| Compound | pIC50 [1] | pIC50 ([2]; KYSE-520, 2 h) | pIC50 [2] |
| --- | --- | --- | --- |
| N#Cc1cn2ccc(Sc3cnc(N4CCC5(CC4)Cn4nccc4[C@H]5N)cn3)c(Cl)c2n1 [Example 57, (S)-7-((5-(4′-amino-4′H,6′H-spiro[piperidine-4,5′-pyrrolo[1,2-b]pyrazol]-1-yl)pyrazin-2-yl)thio)-8-chloroimidazo[1,2-a]pyridine-2-carbonitrile] | ≥ 7.30 | > 7.00 | – |
| N[C@@H]1c2ccnn2CC12CCN(c1cnc(SC3=C(Cl)C4=NC(=O)CN4C=C3)cn1)CC2 [Example 58, (S)-7-((5-(4′-amino-4′H,6′H-spiro[piperidine-4,5′-pyrrolo[1,2-b]pyrazol]-1-yl)pyrazin-2-yl)thio)-8-chloroimidazo[1,2-a]pyridin-2(3H)-one] | ≥ 7.30 | – | 6.30 to 7.00 |
| N[C@@H]1c2ccnn2CC12CCN(c1cnc(Sc3ccnc(-n4ccnc4)c3Cl)cn1)CC2 [Example 59, (S)-1-(5-((3-chloro-2-(1H-imidazol-1-yl)pyridin-4-yl)thio)pyrazin-2-yl)-4′H,6′H-spiro[piperidine-4,5′-pyrrolo[1,2-b]pyrazol]-4′-amine] | ≥ 7.30 | > 7.00 | – |
| Nc1nc(N2CCC3(CC2)Cn2nccc2[C@H]3N)cnc1Sc1ccnc(-n2cccn2)c1Cl [Example 60, (S)-1-(6-amino-5-((3-chloro-2-(1H-pyrazol-1-yl)pyridin-4-yl)thio)pyrazin-2-yl)-4′H,6′H-spiro[piperidine-4,5′-pyrrolo[1,2-b]pyrazol]-4′-amine] | ≥ 7.30 | > 7.00 | – |
| N[C@@H]1c2ccnn2CC12CCN(c1cnc(Sc3ccnc(-n4cc(F)cn4)c3Cl)cn1)CC2 [Example 61, (S)-1-(5-((3-chloro-2-(4-fluoro-1H-pyrazol-1-yl)pyridin-4-yl)thio)pyrazin-2-yl)-4′H,6′H-spiro[piperidine-4,5′-pyrrolo[1,2-b]pyrazol]-4′-amine] | ≥ 7.30 | > 7.00 | – |
| N[C@@H]1c2ccnn2CC12CCN(c1cnc(Sc3ccnc(-n4cccc4)c3Cl)cn1)CC2 [Example 62, (S)-1-(5-((3-chloro-2-(1H-pyrrol-1-yl)pyridin-4-yl)thio)pyrazin-2-yl)-4′H,6′H-spiro[piperidine-4,5′-pyrrolo[1,2-b]pyrazol]-4′-amine] | ≥ 7.30 | > 7.00 | – |

Second part, led by results:

| pIC50 [1] | pIC50 ([2]; KYSE-520, 2 h) | Compound | pIC50 [2] |
| --- | --- | --- | --- |
| ≥ 7.30 | > 7.00 | Nc1nc(N2CCC3(CC2)Cn2nccc2[C@H]3N)cnc1Sc1ccnc(-n2ccnc2)c1Cl [Example 63, (S)-1-(6-amino-5-((3-chloro-2-(1H-imidazol-1-yl)pyridin-4-yl)thio)pyrazin-2-yl)-4′H,6′H-spiro[piperidine-4,5′-pyrrolo[1,2-b]pyrazol]-4′-amine] | – |
| ≥ 7.30 | > 7.00 | Cc1cn2ccc(Sc3ncc(N4CCC5(CC4)Cn4nccc4[C@H]5N)nc3N)c(Cl)c2n1 [Example 64, (S)-1-(6-amino-5-((8-chloro-2-methylimidazo[1,2-a]pyridin-7-yl)thio)pyrazin-2-yl)-4′H,6′H-spiro[piperidine-4,5′-pyrrolo[1,2-b]pyrazol]-4′-amine] | – |
| ≥ 7.30 | > 7.00 | NC(=O)c1cnn(-c2nccc(Sc3cnc(N4CCC5(CC4)Cn4nccc4[C@H]5N)cn3)c2Cl)c1 [Example 65, (S)-1-(4-((5-(4′-amino-4′H,6′H-spiro[piperidine-4,5′-pyrrolo[1,2-b]pyrazol]-1-yl)pyrazin-2-yl)thio)-3-chloropyridin-2-yl)-1H-pyrazole-4-carboxamide] | – |
| ≥ 7.30 | > 7.00 | NC(=O)c1ccn(-c2nccc(Sc3cnc(N4CCC5(CC4)Cn4nccc4[C@H]5N)cn3)c2Cl)c1 [Example 66, (S)-1-(4-((5-(4′-amino-4′H,6′H-spiro[piperidine-4,5′-pyrrolo[1,2-b]pyrazol]-1-yl)pyrazin-2-yl)thio)-3-chloropyridin-2-yl)-1H-pyrrole-3-carboxamide] | – |
